Source: US20070099983A1, “Aminocyclohexyl ether compounds and uses thereof” (Cardiome Pharma Corp., priority 2003, published 2007)
Structures can show the parent of a compound that is named as a salt.

Test system: conscious rats
Assay: Determination of CNS toxicity: convulsions in conscious rats on increasing i.v. infusion
Assay type: in vivo
Conditions: rat, in vivo; for convulsion dose: iv

| Structure (SMILES) | cum conv dose [µmol/kg] | convulsion dose [µmol/kg/min] |
| --- | --- | --- |
| Cl.O=C1CCN(C2CCCC[C@@H]2OCC(c2ccccc2)c2ccccc2)C1 (stereo partly drawn) [Compound 47, (1R,2R)/(1S,2S)-2-(3-ketopyrrolidinyl)-1-(2,2-diphenylethoxy)cyclo hexane monohydrochloride] | 155 | 21 |
| c1ccc2cc(OCCO[C@H]3CCCCC3N3CCOCC3)ccc2c1 (stereo partly drawn) [Compound 33, (1R,2R)/(1S,2S)-[2-(4-morpholinyl)-1-[2-(2-naphthoxy)ethoxy]]-cyclohexane] | 61.63 | 8 |
| Brc1cccc(CCO[C@H]2CCCCC2N2CCOCC2)c1 (stereo partly drawn) [Compound 38, (1R,2R)/(1S,2S)-[2-(4-morpholinyl)-1-(3-bromophenethoxy)]-cyclohexane] | 131 | 16 |
| Cl.O[C@@H]1CCN(C2CCCC[C@@H]2OCCc2cc3ccccc3o2)C1 (stereo partly drawn) [Compound 29, (3R)-1-{(1R,2R)/(1S,2S)-2-[2-(1-benzofuran-2-yl)ethoxy]-cyclohexyl}-pyrrolidin-3-ol hydrochloride] | 65.67 | 10.67 |
| Cl.OC1CCN([C@@H]2CCCC[C@@H]2OCCc2cccc3ccccc23)C1 (stereo partly drawn) [Compound 25, (3R)/(3S)-1-{(1R,2S)/(1S,2R)-2-[2-(1-naphthyl)ethoxy]-cyclohexyl}-pyrrolidin-3-ol hydrochloride] | 70 | 16 |
| Brc1ccccc1CCO[C@H]1CCCCC1N1CCOCC1 (stereo partly drawn) [Compound 39, (1R,2R)/(1S,2S)-[2-(4-morpholinyl)-1-(2-bromophenethoxy)]-cyclohexane] | 125 | 16 |
| COc1ccc(CCO[C@H]2CCCCC2N2CCC(O)C2)cc1OC (stereo partly drawn) [Compound 3, (1R,2R)/(1S,2S)-2-[(3R)/(3S)-Hydroxypyrrolidinyl]-1-(3,4-dimethoxyphenethoxy)-cyclohexane monohydrochloride] | 502 | 64 |
| Cl.O[C@@H]1CCN(C2CCCC[C@@H]2OCCc2ccccc2C(F)(F)F)C1 (stereo partly drawn) [Compound 27, (3R)-1-{(1R,2R)/(1S,2S)-2-[2-(2-Trifluoromethyl-phenyl)ethoxy]-cyclohexyl}-pyrrolidin-3-ol hydrochloride] | 101.93 | 16 |
| COc1ccc(CCOC2CCCC[C@H]2N2CCOCC2)cc1OC.Cl (stereo partly drawn) [Compound 8, 4-{(1R,2R)/(1S,2S)-2-[2-(3,4-dimethoxy-phenyl)ethoxy]cyclohexyl}morpholine hydrochloride] | 113 | 16 |
| COc1ccc(CCO[C@H]2CCCCC2N2CC[C@@H](O)C2)cc1OC.Cl (stereo partly drawn) [Compound 4, (1R,2R)/(1S,2S)-2-[(3R)-Hydroxypyrrolidinyl]-1-(3,4-dimethoxyphenethoxy)-cyclohexane monohydrochloride] | 502 | 64 |
| Cl.OC1CCN(C2CCCC[C@@H]2OCCc2cccc3ccccc23)C1 (stereo partly drawn) [Compound 26, (3R)/(3S)-1-{(1R,2R)/(1S,2S)-2-[2-(1-naphthyl)ethoxy]-cyclohexyl}-pyrrolidin-3-ol hydrochloride] | 67.33 | 8 |
| c1ccc2c(CCO[C@H]3CCCCC3N3CCOCC3)cccc2c1 (stereo partly drawn) [Compound 31, (1R,2R)/(1S,2S)-[2-(4-morpholinyl)-1-(1-naphthenethoxy)]-cyclohexane] | 93 | 16 |
| COc1ccc(CCOC2CCCC[C@H]2N2CC=CC2)cc1OC.Cl (stereo partly drawn) [Compound 16, 1-{(1R,2R)/(1S,2S)-2-[2-(3,4-dimethoxyphenyl)-ethoxy]cyclohexyl}-2,5-dihydro-1H-pyrrole hydrochloride] | 44.4 | 8 |
| COc1cc(CCCO[C@H]2CCCCC2N2CC[C@@H](O)C2)cc(Cl)c1OC.Cl (stereo partly drawn) [Compound 21, (3R)-1-{(1R,2R)/(1S,2S)-2-[3-(3-chloro-4,5-dimethoxyphenyl)-propoxy]cyclohexyl}pyrrolidin-3-ol hydrochloride] | 90.9 | 13.33 |
| COc1ccc(CCOC2CCCC[C@H]2N2CCC(=O)C2)cc1OC.Cl (stereo partly drawn) [Compound 18, 1-{(1R,2R)/(1S,2S)-2-[2-(3,4-dimethoxyphenyl)-ethoxy]cyclohexyl}-pyrrolidin-3-one hydrochloride] | 235 | 32 |
| Cl.O=C1CCN([C@@H]2CCCCC2OCc2c(Cl)cccc2Cl)C1 (stereo partly drawn) [Compound 45, (1R,2R)/(1S,2S)-2-(3-ketopyrrolidinyl)-1-[(2,6-dichlorophenyl)methoxy]cyclohexane monohydrochloride] | 214 | 32 |
| COc1ccc(CCCO[C@H]2CCCCC2N2CCOCC2)cc1OC.Cl (stereo partly drawn) [Compound 19, 4-{(1R,2R)/(1S,2S)-2-[3-(3,4-dimethoxyphenyl)-propoxy]cyclohexyl}morpholine hydrochloride] | 109 | 16 |
| COc1ccc(CCCCO[C@H]2CCCCC2N2CCOCC2)cc1OC.Cl (stereo partly drawn) [Compound 20, 4-{(1R,2R)/(1S,2S)-2-[4-(3,4-dimethoxyphenyl)-butoxy]cyclohexyl}morpholine hydrochloride] | 66.8 | 10.7 |
| Brc1ccc(CCO[C@H]2CCCCC2N2CCOCC2)cc1 (stereo partly drawn) [Compound 32] | 91 | 12 |
| CC(=O)OC1CCN([C@@H]2CCCCC2OCCc2cccc3ccccc23)C1.Cl (stereo partly drawn) [Compound 43, (1R,2R)/(1S,2S)-2-(3-acetoxypyrrolidinyl)-1-(1-naphthenethoxy)cyclo hexane monohydrochloride] | 65 | 8 |
| COc1ccc(CCOC2CCCC[C@H]2N2CCC(F)C2)cc1OC.Cl (stereo partly drawn) [Compound 14, (3R)/(3S)-1-{(1R,2R)/(1S,2S)-2-[2-(3,4-dimethoxyphenyl)-ethoxy]cyclohexyl}-3-fluoropyrrolidine hydrochloride] | 63.33 | 10.67 |
| Cl.OC1CCN(C2CCCC[C@@H]2OCCc2c(Cl)cccc2Cl)C1 (stereo partly drawn) [Compound 23, (3R)/(3S)-1-{(1R,2R)/(1S,2S)-2-[2-(2,6-dichlorophenyl)-ethoxy]cyclohexyl}-pyrrolidin-3-ol hydrochloride] | 65 | 8 |
| COc1ccc(CCO[C@H]2CCCCC2N2CCCC2)cc1OC.Cl (stereo partly drawn) [Compound 10, 1-{(1R,2R)/(1S,2S)-2-[2-(3,4-dimethoxyphenyl)-ethoxy]cyclohexyl}-pyrrolidine hydrochloride] | 118 | 21.33 |
| Cl.Clc1cccc(Cl)c1COC1CCCC[C@H]1N1CCOCC1 (stereo partly drawn) [Compound 44, (1R,2R)/(1S,2S)-2-(4-morpholinyl)-1-[(2,6-dichlorophenyl)methoxy]cyclohexane monohydrochloride] | 97 | 16 |
